Assay results: patent US20240199597A1, “SMALL MOLECULES FOR THE TREATMENT OF KINASE-RELATED DISEASES” (Athos Therapeutics, Inc., priority 2021, published 2024)

Tests used:
Kasumi-3 = assay: Cancer cytotoxicity assay (Real-Time-Glo cell viability), Kasumi-3; type: cell-based; settings: leukemia cell, 72 hr
Protocol: (§1) The cytotoxicity of Compounds 1, 3, 4, 6, 7, 8, 9, 10, 12 and 13 against cancer cell lines was determined. To determine the optimal plating density for cell viability assays, for each cell line, cells were counted and diluted to final densities of 2.5, 5, 10 and 20 thousand per 100 μL of their respective growth media per well in 96 well plates. The Promega Real-Time-Glo cell viability kit was used to determine the optimal concentration for cell plating so that each cell line would be within the linear part of its growth curve after 72 hrs in culture. For the determination of test compound IC50s, different cancer cell lines were plated in 96 well plates in the pre-determined optimal density for each cell line. Test compounds were then added at different concentrations for the creation of six-point curve and cell density was determined using the Promega Real-Time-Glo cell viability kit after 24, 48, and 72 hrs in culture.

HT-29 cells = assay: Reduction of colorectal tumor mass, HT-29 xenograft in nude mice; type: in vivo, Male nude mice; settings: 5 mg/kg I.P. every 48 h
Protocol: Male nude mice ages 6-8 weeks (NU/J. Jackson Laboratories) received rear, hind leg flank subcutaneous injections of 5×10^6 HT-29 cells diluted 1:1 in matrigel-cell culture media. Mice were then monitored daily until tumor nodules reached 100-200 mm^3 upon which point they were randomized into treatment groups based on their weight and tumor size and treatment. Mice (10 mice per group) were injected I.P. every 48 h with 100 μL of either vehicle control or Compound 8 (5 mg/kg). Tumor nodules were then monitored every 48 h for up to 28 days with tumor volumes calculated using the equation V=(L*W2)/2 where L is length and W is width of a tumor. Differences in xenograft volumes between the different groups were analyzed by single factor analysis of variance of the log-transformed tumor volume data. Mice with tumors that exceed 1000 mm^3 were euthanized to avoid excessive suffering.

CLK1 = biological target: T1, CLK1 (Homo sapiens, UniProt P49759); assay: Kinase inhibition assay (Eurofins DiscoverX KinaseProfiler / KdElect), CLK1; type: biochemical
T1 construct: purchased Eurofins DiscoverX (contract service)
Protocol: (§2) The activity of Compounds 1, 3, 4, 6, 7, 8, 9, 10 and 13 in inhibiting CLK1, CLK4, PLK4, and FLT3 kinases was determined. Stock solutions of the compounds being evaluated were prepared. The IC50 values were determined by the Eurofins DiscoverX services using either the KinaseProfiler or the KdElect kinase activity detection assays.

FLT3 = biological target: T2, FLT3 (Homo sapiens, UniProt P36888); assay: Kinase assay (Eurofins DiscoverX KinaseProfiler / KdElect), FLT3; type: binding; settings: read-out: FLT3 (Kd50 nM)
T2 construct: purchased Eurofins DiscoverX (contract service)
T2 sequence (P36888 27-993): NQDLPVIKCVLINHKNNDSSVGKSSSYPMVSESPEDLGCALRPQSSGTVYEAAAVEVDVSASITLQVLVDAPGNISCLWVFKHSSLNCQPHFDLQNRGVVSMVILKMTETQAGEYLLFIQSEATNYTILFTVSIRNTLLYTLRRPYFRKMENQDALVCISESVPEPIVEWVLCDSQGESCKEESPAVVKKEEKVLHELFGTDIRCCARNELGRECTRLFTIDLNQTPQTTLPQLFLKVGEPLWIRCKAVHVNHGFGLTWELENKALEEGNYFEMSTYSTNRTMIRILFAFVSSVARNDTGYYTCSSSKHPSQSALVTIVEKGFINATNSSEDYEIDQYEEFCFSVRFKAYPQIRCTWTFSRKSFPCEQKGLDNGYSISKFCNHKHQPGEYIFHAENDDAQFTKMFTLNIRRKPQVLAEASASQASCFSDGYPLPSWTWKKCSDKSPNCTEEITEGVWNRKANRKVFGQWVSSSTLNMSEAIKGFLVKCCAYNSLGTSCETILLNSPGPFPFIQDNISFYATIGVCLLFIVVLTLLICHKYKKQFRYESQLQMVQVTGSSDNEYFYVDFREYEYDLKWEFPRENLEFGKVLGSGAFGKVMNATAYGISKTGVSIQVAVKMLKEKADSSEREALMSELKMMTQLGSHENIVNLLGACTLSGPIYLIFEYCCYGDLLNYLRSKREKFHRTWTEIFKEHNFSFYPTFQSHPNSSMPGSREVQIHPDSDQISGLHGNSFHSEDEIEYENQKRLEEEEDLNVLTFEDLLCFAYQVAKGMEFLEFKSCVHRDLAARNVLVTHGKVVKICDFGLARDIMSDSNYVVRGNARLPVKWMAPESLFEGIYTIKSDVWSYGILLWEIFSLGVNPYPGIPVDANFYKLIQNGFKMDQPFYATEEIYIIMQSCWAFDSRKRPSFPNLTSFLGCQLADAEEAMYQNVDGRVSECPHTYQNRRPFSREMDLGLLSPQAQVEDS
Protocol: Stock solutions of the compounds being evaluated were prepared. The IC50 values were determined by the Eurofins DiscoverX services using either the KinaseProfiler or the KdElect kinase activity detection assays.

Kasumi-1 = assay: Cancer cytotoxicity assay (Real-Time-Glo cell viability), Kasumi-1; type: cell-based; settings: Homo sapiens, leukemia cell, 72 hr
Protocol: as §1

OV-90 = assay: Cancer cytotoxicity assay (Real-Time-Glo cell viability), OV-90; type: cell-based; settings: Homo sapiens, ovarian cancer cell line, 72 hr
Protocol: as §1

786-O = assay: Cancer cytotoxicity assay (Real-Time-Glo cell viability), 786-O; type: cell-based; settings: Homo sapiens, 786-0; kidney cancer, 72 hr
Protocol: as §1

A-498 = assay: Cancer cytotoxicity assay (Real-Time-Glo cell viability), A-498; type: cell-based; settings: Homo sapiens, A498; kidney cancer, 72 hr
Protocol: as §1

HCT-116 = assay: Cancer cytotoxicity assay (Real-Time-Glo cell viability), HCT-116; type: cell-based; settings: Homo sapiens, colorectal cancer cell line, 72 hr
Protocol: as §1

HT-29 = assay: Cancer cytotoxicity assay (Real-Time-Glo cell viability), HT-29; type: cell-based; settings: Homo sapiens, colorectal cancer cell line, 72 hr
Protocol: as §1

SKOV-3 = assay: Cancer cytotoxicity assay (Real-Time-Glo cell viability), SKOV-3; type: cell-based; settings: Homo sapiens, SK-OV-3; ovarian cancer cell line, 72 hr
Protocol: as §1

MV4-11 = assay: Cancer cytotoxicity assay (Real-Time-Glo cell viability), MV4-11; type: cell-based; settings: Homo sapiens, leukemia cell, 72 hr
Protocol: as §1

CLK4 = biological target: T3, CLK4 (Homo sapiens, UniProt Q9HAZ1); assay: Kinase inhibition assay (Eurofins DiscoverX KinaseProfiler / KdElect), CLK4; type: biochemical
T3 construct: purchased Eurofins DiscoverX (contract service)
Protocol: as §2

PLK4 = biological target: T4, PLK4 (Homo sapiens, UniProt O00444); assay: Kinase inhibition assay (Eurofins DiscoverX KinaseProfiler / KdElect), PLK4; type: biochemical
T4 construct: purchased Eurofins DiscoverX (contract service)
T4 sequence (O00444 1-970): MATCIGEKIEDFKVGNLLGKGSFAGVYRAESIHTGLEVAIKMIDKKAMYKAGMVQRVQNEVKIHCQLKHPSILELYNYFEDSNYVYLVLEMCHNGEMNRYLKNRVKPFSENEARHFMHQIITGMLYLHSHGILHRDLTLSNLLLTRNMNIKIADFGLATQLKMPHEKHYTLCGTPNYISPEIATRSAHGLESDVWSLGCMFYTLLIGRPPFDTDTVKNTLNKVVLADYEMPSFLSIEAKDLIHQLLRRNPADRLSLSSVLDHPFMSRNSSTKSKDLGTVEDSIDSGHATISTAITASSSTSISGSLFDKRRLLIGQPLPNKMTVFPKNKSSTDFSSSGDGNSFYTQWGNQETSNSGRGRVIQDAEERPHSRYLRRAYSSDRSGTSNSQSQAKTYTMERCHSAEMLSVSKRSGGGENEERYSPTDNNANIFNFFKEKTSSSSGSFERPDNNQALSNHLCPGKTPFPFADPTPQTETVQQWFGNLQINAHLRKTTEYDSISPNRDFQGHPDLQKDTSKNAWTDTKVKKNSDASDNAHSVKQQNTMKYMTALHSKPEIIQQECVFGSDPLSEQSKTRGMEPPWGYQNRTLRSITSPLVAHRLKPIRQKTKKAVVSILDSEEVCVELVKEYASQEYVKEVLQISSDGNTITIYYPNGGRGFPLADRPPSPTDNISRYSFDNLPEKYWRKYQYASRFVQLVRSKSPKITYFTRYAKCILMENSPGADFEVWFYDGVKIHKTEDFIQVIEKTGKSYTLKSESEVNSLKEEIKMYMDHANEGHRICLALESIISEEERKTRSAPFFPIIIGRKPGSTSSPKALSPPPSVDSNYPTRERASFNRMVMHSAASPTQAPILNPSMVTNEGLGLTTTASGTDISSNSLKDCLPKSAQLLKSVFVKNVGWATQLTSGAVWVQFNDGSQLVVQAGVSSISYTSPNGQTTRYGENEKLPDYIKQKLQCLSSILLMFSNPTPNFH
Protocol: as §2

T1 sequence (P49759 whole entry): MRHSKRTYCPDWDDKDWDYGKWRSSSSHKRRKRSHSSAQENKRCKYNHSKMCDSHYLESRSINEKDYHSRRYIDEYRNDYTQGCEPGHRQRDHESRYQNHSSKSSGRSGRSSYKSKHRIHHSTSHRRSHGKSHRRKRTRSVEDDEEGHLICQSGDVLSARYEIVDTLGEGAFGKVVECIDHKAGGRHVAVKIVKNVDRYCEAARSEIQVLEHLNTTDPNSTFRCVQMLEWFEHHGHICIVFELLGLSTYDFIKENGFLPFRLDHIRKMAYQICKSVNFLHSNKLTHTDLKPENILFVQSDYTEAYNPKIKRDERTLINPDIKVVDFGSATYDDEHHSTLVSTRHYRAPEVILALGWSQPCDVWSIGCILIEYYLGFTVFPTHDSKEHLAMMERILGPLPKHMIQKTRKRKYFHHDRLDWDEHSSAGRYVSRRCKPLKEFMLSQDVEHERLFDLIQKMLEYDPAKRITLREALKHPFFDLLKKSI
T3 sequence (Q9HAZ1 whole entry): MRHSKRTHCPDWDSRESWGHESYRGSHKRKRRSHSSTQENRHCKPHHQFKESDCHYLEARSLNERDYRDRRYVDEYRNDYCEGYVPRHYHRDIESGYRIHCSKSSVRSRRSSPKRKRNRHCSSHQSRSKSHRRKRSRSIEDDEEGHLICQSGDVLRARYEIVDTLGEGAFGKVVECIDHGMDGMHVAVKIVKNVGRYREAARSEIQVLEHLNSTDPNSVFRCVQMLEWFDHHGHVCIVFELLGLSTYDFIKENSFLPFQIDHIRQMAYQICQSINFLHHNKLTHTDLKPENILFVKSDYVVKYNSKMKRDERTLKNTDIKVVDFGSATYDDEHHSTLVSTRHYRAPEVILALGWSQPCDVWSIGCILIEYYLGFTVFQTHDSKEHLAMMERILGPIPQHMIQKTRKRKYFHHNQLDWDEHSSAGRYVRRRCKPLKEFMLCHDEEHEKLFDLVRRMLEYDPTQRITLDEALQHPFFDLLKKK

IC50 (CLK1): < 1000 nM
Kd (FLT3): < 1000 nM
IC50 (CLK4): < 1000 nM
IC50 (PLK4): < 1000 nM
Compound: CCc1cc(Nc2nc(N3CCC(F)(F)CC3)nc3cc(OCCCN4CCCC4)c(OC)cc23)n[nH]1 [Compound 8, 2-(4,4-difluoropiperidin-1-yl)-N-(5-ethyl-1H-pyrazol-3-yl)-6-methoxy-7-(3-(pyrrolidin-1-yl)propoxy)quinazolin-4-amine]
IC50 (Kasumi-3): 1000 to 5000 nM
tumor growth compared to vehicle control (FIG. 3A) (HT-29 cells; 16 day study): significantly slower tumor growth
tumors on day 16 compared to vehicle (HT-29 cells; day 16): significantly smaller tumors
increase of tumor (FIG. 3B, tumor mass) (HT-29 cells; vehicle 600%): 370%
IC50 (Kasumi-1): 1000 to 5000 nM
IC50 (OV-90): 1000 to 5000 nM
IC50 (786-O): 1000 to 5000 nM
IC50 (A-498): 1000 to 5000 nM
IC50 (HCT-116): 1000 to 5000 nM
IC50 (HT-29): 1000 to 5000 nM
IC50 (SKOV-3): 1000 to 5000 nM
IC50 (MV4-11): < 1000 nM
